Measurements: patent publication US20140127235A1, “TARGETING HK alpha FOR CONTROLLING BLOOD PRESSURE AND REGULATING ELECTROLYTE BALANCE” (UNIVERSITY OF FLORIDA RESEARCH FOUNDATION, INC., priority 2011, published 2014)

Legend:
Format in all cases: in vivo, mouse
[1] = DOCP treatment of wild type, HKα1−/− and HKα1,2−/− mice: body weight, blood electrolytes, urinary and fecal electrolyte excretion
From the text: In a separate study, the effect of DOCP treatment of body weight change, blood electrolytes, and urinary and fecal electrolyte excretion was examined in wild type, HKα1^−/−, and HKα1,2^−/− mice on a normal diet.
In the context of whole animal physiology, it is important to examine the overall electrolyte balance as the […] of urinary and fecal excretion subtracted from the intake of that electrolyte.
(§1) Mice were fed normal lab chow, given free access to water, and given an i.m. injection of 1.7 mg DOCP (Percorten V, Novartis Pharmaceuticals). For perfusion and expression studies, mice were sacrificed with Na^+ pentobarbital (i.p. 120 mg/kg) followed by cervical dislocation. For time course experiments, another group of animals were anesthetized with 3-4% isoflurane and aortic blood was collected into a heparinized syringe for immediate analysis of electrolytes and blood gases (Nova pHOx Plus analyzer, Nova Biomedical). For high K^+ diet studies, mice were given a normal, powdered diet (TD99131, Teklad) supplemented with KCl to equal 5% K^+ which was then made as a gel. Half of the mice were treated with DOCP. Blood and tissues were collected as in the time course experiments. For urinalysis experiments, mice were housed in metabolic cages for thirteen days and fed a normal gel diet with free access to a water bottle. On day five, mice were treated with DOCP as above. Urine and feces were collected daily. Urine electrolytes were measured on a clinical analyzer (Nova 16 analyzer, Nova Biomedical) and fecal electrolytes were measured on a digital flame photometer (Model 2655-00, Cole-Parmer).

[2] = Survival of DOCP-treated WT and HKα1,2−/− mice over 60 days; settings: two injections of DOCP on day zero and day 57
From the text: These animals all received two injections of DOCP on day zero and day 57. Four of the HKα1,2^−/− mice died at day's nine 46, 47, and 59 for an overall survival at 60 days of 57% for the HKα1,2^−/− mice whereas there were no deaths in the nine WT animals X^2 (log-rank): 4.554 (P<0.05).

[3] = Time course of the physiological effect of DOCP treatment in wild type mice (body weight, blood electrolytes); settings: for Change in BW (%) / Blood [Cl−] / Blood [HCO3−] / Blood [K+] / Blood [Na+]: wild type mice; for Change in BW (%): DOCP 1.7 mg i.m.
Procedure: A primary goal of the study was to characterize the temporal changes in body weight, Na^+, K^+, and acid-base homeostasis during chronic mineralocorticoid excess. Body weight and blood electrolytes were measured over an eight day time course in untreated (control) mice and those treated with DOCP (1.7 mg) (Table 1).
as §1

H^+,K^+-ATPase = assay: H+,K+-ATPase-mediated H+ secretion (JH) in intercalated cells of microperfused inner cortical collecting ducts from DOCP-treated mice (BCECF-AM)
Procedure: One likely mechanism for mineralocorticoid-induced changes in acid-base homeostasis was stimulation of renal H^+,K^+-ATPase activity in response to mineralocorticoid-induced K^+ deficits. Therefore, H^+,K^+-ATPase activity was assessed in inner cortical collecting ducts from control and DOCP-treated mice. Individual intercalated cells from microperfused collecting ducts were loaded with the pH sensitive fluorescent dye, BCECF-AM. The addition of inhibitors of the Na^+/H^+ exchanger and the H^+-ATPase allowed for the measurement of H^+,K^+-ATPase-mediated H^+ secretion (JH) in response to an acute intracellular acid load (NH4Cl). The overall rate of H^+,K^+-ATPase-mediated JH in intercalated cells from control mice was quite slow (˜15H^+/min) (FIG. 1).
Additional experiments were conducted to identify which intercalated cell subtype was responsible for the DOCP-induced increase in H^+,K^+-ATPase mediated JH. Again, the rate of H^+,K^+-ATPase-mediated JH was measured in intercalated cells of inner cortical collecting ducts from control and DOCP-treated mice. At the end of the experiment, A- and B-type ICs were differentiated by peritubular Cl^− removal and return as has been described previously^12,13 The characteristic inverse responses of A- and B-type intercalated cells to Cl^− removal and return were observed (Table 2). […]
Inner cortical collecting ducts were hand dissected at 4° C., transferred to a mounting chamber and perfused as described previously.^25 The ratiometric, pH sensitive dye, BCECF-AM (15 μM, Invitrogen) was added to the luminal perfusate for 10 minutes and fluorescence measurements were performed after dye de-esterification. […] Recovery rates were calculated from the linear portion of the pH, recovery phase starting with the lowest pH, achieved. The intrinsic buffering capacity was calculated from the formula βi=ΔHi/ΔpHi where ΔHi is the change in the calculated [NH4]i and ΔpHi the change in pHi during the acid loaded phase. Acid secretion rates (JH) were calculated from the formula JH=βi*ΔpH, (U/min) and expressed as [H^+]/min. […]

In the case of `CC(C)(C)C(=O)OCC(=O)[C@H]1CC[C@H]2[C@@H]3CCC4=CC(=O)CC[C@]4(C)[C@H]3CC[C@]12C` [DOCP, desoxycorticosterone pivalate], the “effect of DOCP to decrease blood [Cl−] and increase blood [HCO3−]” value ([1]; HKα1,2−/− mice, day eight) is reported as “eliminated”, the “K+ retention, less than wild type mice with DOCP treatment” value ([1]; HKα1,2−/− mice, day eight, overall balance) is reported as about 40% and the “Overall Na+ retention versus wild type or HKα1−/− mice” value ([1]; HKα1,2−/− mice, eighth day of DOCP treatment) is reported as “significantly less”. For the same molecule, the “increase of fecal K+ loss with DOCP treatment” value ([1]; HKα1−/− and HKα1,2−/− mice, versus control period) was about 50%, the “Urine volume by the end of DOCP treatment” value ([1]; HKα1−/− mice) was “considerably decreased” and the “DOCP-induced body weight gain relative to wild type” value ([1]; HKα1−/− mice, day eight, normal diet) was “augmented nearly two-fold”. For the same molecule, the “dry stool weight, more than wild type or HKα1,2−/− mice when treated with DOCP” value ([1]; HKα1−/− mice, pair fed) was 50%, the “Urine volume by the end of DOCP treatment” value ([1]; wild type and HKα1,2−/− mice) was “doubled” and the “overall Na+ balance with DOCP treatment” value ([1]; wild type mice) was “increased”. For the same molecule, the “overall survival at 60 days” value ([2]; HKα1,2−/− mice (seven)) was 57%, the “deaths over 60 days” value ([2]; nine WT mice) was “no deaths” and the “Change in BW (%)” value ([3]; Day 2) was 0.06 ± 1.2 (7) %. For the same molecule, the “Change in BW (%)” value ([3]; Day 4) was 2.0 ± 1.2 (7) %, the “Change in BW (%)” value ([3]; Day 6) was 5.4 ± 1.4 (7)**^,† % and the “Change in BW (%)” value ([3]; Day 8) was 6.1 ± 1.2 (7)**^,† %. The “Blood [Cl−]” value ([3]; Day 2 of DOCP) was 120 ± 1.8 (3) mM, the “Blood [HCO3−]” value ([3]; Day 2 of DOCP) was 19 ± 0.87 (4) mM and the “Blood [K+]” value ([3]; Day 2 of DOCP) was 3.5 ± 0.12 (4) mM. The “Blood [Na+]” value ([3]; Day 2 of DOCP) was 150 ± 1.3 (3) mM, the “Blood [Cl−]” value ([3]; Day 4 of DOCP) was 116 ± 0.95 (4) mM and the “Blood [HCO3−]” value ([3]; Day 4 of DOCP) was 20 ± 1.2 (4) mM. The “Blood [K+]” value ([3]; Day 4 of DOCP) was 3.5 ± 0.17 (4) mM, the “Blood [Na+]” value ([3]; Day 4 of DOCP) was 153 ± 1.8 (4) mM and the “Blood [Cl−]” value ([3]; Day 6 of DOCP) was 117 ± 0.35 (3) mM. For the same molecule, the “Blood [HCO3−]” value ([3]; Day 6 of DOCP) was 20 ± 0.53 (3) mM, the “Blood [K+]” value ([3]; Day 6 of DOCP) was 2.9 ± 0.21 (3) mM and the “Blood [Na+]” value ([3]; Day 6 of DOCP) was 153 ± 0.80 (3) mM. For the same molecule, the “Blood [Cl−]” value ([3]; Day 8 of DOCP) was 111 ± 0.82 (3)*^,**^,†,‡ mM, the “Blood [HCO3−]” value ([3]; Day 8 of DOCP) was 23 ± 2.0 (3) mM and the “Blood [K+]” value ([3]; Day 8 of DOCP) was 2.8 ± 0.07 (3)*^,† mM. The “Blood [Na+]” value ([3]; Day 8 of DOCP) was 150 ± 0.41 (3) mM, the “decrease in blood [Cl−]” value ([3]; wild-type mice, eight days of DOCP treatment) was “approximately 7 mM” and the “increase in H+,K+-ATPase-mediated JH” value (H^+,K^+-ATPase; A-type intercalated cells, DOCP-treated versus control mice) was “approximately 60%”. The “rate of H+,K+-ATPase-mediated JH” value (H^+,K^+-ATPase; B type ICs, DOCP-treated versus control mice) was “not affected” and the “increase in H+,K+-ATPase-mediated JH” value (H^+,K^+-ATPase; intercalated cells from DOCP-treated mice (eight days) versus control) was “greater than 60%”.
